PMC8474115 (Journal of Medicinal Chemistry, 2021)
Where a name gives a salt, the structure may show the parent alone. Read-outs that look alike come from different tables or passages of the source.

Assays:
Adrenergic α1B = target: T1, Adrenergic α1B (Rattus norvegicus, UniProt P15823); assay: Eurofins SafetyScreen panel; assay type: binding
T1 construct: Eurofins (contract screening, SafetyScreen panel) PP223

h5-HT1A = h5-HT1A (Homo sapiens, UniProt P08908); settings: 5-HT1AR
Procedure: For membrane preparation, cells after reaching 90% confluence, were washed with phosphate-buffered saline (PBS), and pelleted by centrifugation (200 × g) in PBS containing 0.1 mM EDTA and 1 mM dithiothreitol.
The total reaction volume was 200 μL. The incubation process was terminated by filtration through UniFilter-96 (PerkinElmer) plates with the FilterMate Universal Harvester (PerkinElmer, #C961962), and radioactivity retained on the filters was quantified on a MicroBeta counter for radiometric detection (PerkinElmer). […] To evaluate the level of nonspecific signal 10 μM of 5-HT for 5-HT1AR and 5-HT7R, 20 μM of mianserin for 5-HT2AR, 10 μM of methiothepine for 5-HT6R and 10 μM of haloperidol for D2LR were used. […] The acquired results were presented as the mean of at least two independent experiments.

Chemokine CCR1 = target: T2, Chemokine CCR1 (Homo sapiens, UniProt P32246); assay: Eurofins SafetyScreen panel; assay type: binding
T2 construct: purchased Eurofins (Panlabs) SafetyScreen87 Panel

Histamine H1 = target: T3, Histamine H1 (Homo sapiens, UniProt P35367); assay: Eurofins SafetyScreen panel; assay type: binding
T3 construct: Eurofins (contract screening, SafetyScreen panel) PP223

COX-1 = target: T4, COX-1 (Homo sapiens, UniProt P23219); assay: Eurofins SafetyScreen panel; assay type: biochemical
T4 construct: Eurofins

Serotonin 5-HT2C = target: T5, Serotonin 5-HT2C (Homo sapiens, UniProt P28335); assay: Eurofins SafetyScreen panel; assay type: binding
T5 construct: Eurofins (contract assay)
T5 sequence (P28335 33-458): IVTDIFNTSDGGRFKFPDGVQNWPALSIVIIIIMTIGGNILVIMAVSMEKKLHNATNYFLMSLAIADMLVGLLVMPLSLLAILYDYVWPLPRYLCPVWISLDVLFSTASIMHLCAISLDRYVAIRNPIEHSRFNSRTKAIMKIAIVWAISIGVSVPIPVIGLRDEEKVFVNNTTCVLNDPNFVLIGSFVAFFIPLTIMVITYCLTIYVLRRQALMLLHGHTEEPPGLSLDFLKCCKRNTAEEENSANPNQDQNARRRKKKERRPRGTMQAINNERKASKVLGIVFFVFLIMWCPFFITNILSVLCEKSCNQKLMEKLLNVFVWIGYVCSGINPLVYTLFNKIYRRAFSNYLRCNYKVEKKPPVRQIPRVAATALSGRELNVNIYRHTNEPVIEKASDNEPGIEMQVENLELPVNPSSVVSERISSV

Tachykinin NK1 = target: T6, Tachykinin NK1 (Homo sapiens, UniProt P25103); assay: Eurofins SafetyScreen panel; assay type: binding
T6 construct: Eurofins (contract assay)

Cannabinoid CB2 = target: T7, Cannabinoid CB2 (Homo sapiens, UniProt P34972); assay: Eurofins SafetyScreen panel; assay type: binding
T7 construct: purchased Eurofins (Panlabs) SafetyScreen87 Panel

Muscarinic M2 = target: T8, Muscarinic M2 (Homo sapiens, UniProt P08172); assay: Eurofins SafetyScreen panel; assay type: binding
T8 construct: Eurofins (contract screening, SafetyScreen panel) PP223

Adrenergic β1 = target: T9, Adrenergic β1 (Homo sapiens, UniProt P08588); assay: Eurofins SafetyScreen panel; assay type: binding
T9 construct: Eurofins (contract screening, SafetyScreen panel) PP223

[1] = target: T10, Platelet Activating Factor (PAF) (Homo sapiens, UniProt P25105); assay: Eurofins SafetyScreen panel; assay type: binding
T10 construct: Eurofins (contract assay)

Serotonin 5-HT2B = target: T11, Serotonin 5-HT2B (Homo sapiens, UniProt P41595); assay: Eurofins SafetyScreen panel; assay type: binding
T11 construct: Eurofins (contract assay)

Adenosine A1 = target: T12, Adenosine A1 (Homo sapiens, UniProt P30542); assay: Eurofins SafetyScreen panel; assay type: binding
T12 construct: Eurofins (contract screening, SafetyScreen panel) PP223

[2] = target: Ca Channel L-Type, Phenylalkylamine (Rattus norvegicus, UniProt P22002); assay: Eurofins SafetyScreen panel; assay type: binding
Endothelin ETA = target: T13, Endothelin ETA (Homo sapiens, UniProt P25101); assay: Eurofins SafetyScreen panel; assay type: binding
T13 construct: purchased Eurofins (Panlabs) SafetyScreen87 Panel

Histamine H2 = target: T14, Histamine H2 (Homo sapiens, UniProt P25021); assay: Eurofins SafetyScreen panel; assay type: binding
T14 construct: purchased Eurofins (Panlabs) SafetyScreen87 Panel

Adenosine A2A = target: T15, Adenosine A2A (Homo sapiens, UniProt P29274); assay: Eurofins SafetyScreen panel; assay type: binding
T15 construct: Eurofins (contract screening, SafetyScreen panel) PP223

Progesterone PR-B = target: T16, Progesterone PR-B (Homo sapiens, UniProt P06401); assay: Eurofins SafetyScreen panel; assay type: binding
T16 construct: Eurofins (contract assay)

Potassium Channel [hERG] = Potassium Channel [hERG] (Homo sapiens, UniProt Q12809); assay: biochemical
[3] = target: Ca Channel L-Type, Dihydropyridine (Rattus norvegicus, UniProt P22002); assay: Eurofins SafetyScreen panel; assay type: binding
ACE = target: T17, ACE (Oryctolagus cuniculus, UniProt P12822); assay: Eurofins SafetyScreen panel; assay type: biochemical, rabbit
T17 construct: Eurofins

Serotonin 5-HT5A = target: T18, Serotonin 5-HT5A (Homo sapiens, UniProt P47898); assay: Eurofins SafetyScreen panel; assay type: binding
T18 construct: Eurofins (contract assay) 272100

Opiate κ (OP2, KOP) = target: T19, Opiate κ (OP2, KOP) (Homo sapiens, UniProt P41145); assay: Eurofins SafetyScreen panel; assay type: binding
T19 construct: Eurofins (contract assay)

GABA Transporter = target: T20, GABA Transporter (Rattus norvegicus, UniProt P23978); assay: Eurofins SafetyScreen panel; assay type: binding
T20 construct: Eurofins (contract assay)

CYP1A2 = CYP1A2 (Homo sapiens, UniProt P05177); assay: Cytochrome P450 inhibition (Eurofins)
[4] = read-out: %inh, 10 μM, additional batch

T18 sequence (P47898 whole entry): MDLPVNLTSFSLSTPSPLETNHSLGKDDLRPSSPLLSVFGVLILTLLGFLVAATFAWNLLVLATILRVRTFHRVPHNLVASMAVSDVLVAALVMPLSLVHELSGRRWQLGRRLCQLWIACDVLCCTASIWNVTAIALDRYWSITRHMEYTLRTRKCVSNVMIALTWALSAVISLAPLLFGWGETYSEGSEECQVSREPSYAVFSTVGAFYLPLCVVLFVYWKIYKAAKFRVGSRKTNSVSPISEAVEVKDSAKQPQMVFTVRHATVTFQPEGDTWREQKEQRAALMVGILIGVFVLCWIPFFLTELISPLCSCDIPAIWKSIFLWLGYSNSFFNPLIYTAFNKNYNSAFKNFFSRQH
T6 sequence (P25103 whole entry): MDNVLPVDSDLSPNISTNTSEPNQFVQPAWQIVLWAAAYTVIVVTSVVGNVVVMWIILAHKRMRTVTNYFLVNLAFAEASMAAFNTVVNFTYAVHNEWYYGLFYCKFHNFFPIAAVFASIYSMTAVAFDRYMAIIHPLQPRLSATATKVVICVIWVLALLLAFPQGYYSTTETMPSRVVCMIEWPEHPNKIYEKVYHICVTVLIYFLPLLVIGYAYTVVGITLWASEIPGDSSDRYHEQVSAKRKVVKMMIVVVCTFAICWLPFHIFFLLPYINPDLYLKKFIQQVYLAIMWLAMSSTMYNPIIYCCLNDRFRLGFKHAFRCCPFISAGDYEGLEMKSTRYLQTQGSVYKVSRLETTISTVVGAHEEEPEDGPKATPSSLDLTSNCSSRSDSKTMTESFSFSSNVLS
T3 sequence (P35367 whole entry): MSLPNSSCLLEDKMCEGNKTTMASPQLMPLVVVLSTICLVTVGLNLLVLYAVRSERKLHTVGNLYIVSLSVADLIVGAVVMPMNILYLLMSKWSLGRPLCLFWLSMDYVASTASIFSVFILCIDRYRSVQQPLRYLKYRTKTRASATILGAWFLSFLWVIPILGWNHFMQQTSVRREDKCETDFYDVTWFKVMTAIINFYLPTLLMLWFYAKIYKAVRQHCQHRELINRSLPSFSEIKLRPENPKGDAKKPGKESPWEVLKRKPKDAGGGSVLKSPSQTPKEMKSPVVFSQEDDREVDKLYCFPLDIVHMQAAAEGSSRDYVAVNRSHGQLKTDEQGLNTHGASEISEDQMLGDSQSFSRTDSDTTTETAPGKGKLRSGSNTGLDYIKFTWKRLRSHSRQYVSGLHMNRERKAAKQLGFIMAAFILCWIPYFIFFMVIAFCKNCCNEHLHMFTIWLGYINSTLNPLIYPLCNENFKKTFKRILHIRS
T11 sequence (P41595 whole entry): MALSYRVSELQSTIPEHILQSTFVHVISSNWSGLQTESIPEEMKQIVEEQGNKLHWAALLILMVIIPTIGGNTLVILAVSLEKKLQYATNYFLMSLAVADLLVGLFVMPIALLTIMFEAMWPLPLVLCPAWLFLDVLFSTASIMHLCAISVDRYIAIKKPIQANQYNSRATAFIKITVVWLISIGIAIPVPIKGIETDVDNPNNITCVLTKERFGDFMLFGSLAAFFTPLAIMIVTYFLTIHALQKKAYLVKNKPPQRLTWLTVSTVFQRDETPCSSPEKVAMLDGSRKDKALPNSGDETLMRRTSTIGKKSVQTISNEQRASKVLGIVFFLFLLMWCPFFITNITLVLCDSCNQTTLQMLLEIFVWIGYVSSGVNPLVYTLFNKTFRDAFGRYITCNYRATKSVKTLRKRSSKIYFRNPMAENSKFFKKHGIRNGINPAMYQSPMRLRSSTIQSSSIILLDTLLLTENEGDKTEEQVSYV
T9 sequence (P08588 whole entry): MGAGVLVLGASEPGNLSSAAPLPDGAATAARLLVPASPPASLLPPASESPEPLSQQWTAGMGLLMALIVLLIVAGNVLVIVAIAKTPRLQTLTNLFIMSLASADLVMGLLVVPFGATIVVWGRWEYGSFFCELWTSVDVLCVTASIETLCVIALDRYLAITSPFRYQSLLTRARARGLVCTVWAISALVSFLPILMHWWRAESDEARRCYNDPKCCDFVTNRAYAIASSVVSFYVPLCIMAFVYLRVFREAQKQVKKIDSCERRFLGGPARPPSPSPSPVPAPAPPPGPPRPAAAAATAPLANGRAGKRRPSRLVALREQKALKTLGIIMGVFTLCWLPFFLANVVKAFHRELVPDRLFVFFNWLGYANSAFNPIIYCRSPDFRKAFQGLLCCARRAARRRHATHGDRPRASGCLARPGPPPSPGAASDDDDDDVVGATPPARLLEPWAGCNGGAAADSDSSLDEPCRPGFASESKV
Ca Channel L-Type, Phenylalkylamine, sequence (P22002 whole entry): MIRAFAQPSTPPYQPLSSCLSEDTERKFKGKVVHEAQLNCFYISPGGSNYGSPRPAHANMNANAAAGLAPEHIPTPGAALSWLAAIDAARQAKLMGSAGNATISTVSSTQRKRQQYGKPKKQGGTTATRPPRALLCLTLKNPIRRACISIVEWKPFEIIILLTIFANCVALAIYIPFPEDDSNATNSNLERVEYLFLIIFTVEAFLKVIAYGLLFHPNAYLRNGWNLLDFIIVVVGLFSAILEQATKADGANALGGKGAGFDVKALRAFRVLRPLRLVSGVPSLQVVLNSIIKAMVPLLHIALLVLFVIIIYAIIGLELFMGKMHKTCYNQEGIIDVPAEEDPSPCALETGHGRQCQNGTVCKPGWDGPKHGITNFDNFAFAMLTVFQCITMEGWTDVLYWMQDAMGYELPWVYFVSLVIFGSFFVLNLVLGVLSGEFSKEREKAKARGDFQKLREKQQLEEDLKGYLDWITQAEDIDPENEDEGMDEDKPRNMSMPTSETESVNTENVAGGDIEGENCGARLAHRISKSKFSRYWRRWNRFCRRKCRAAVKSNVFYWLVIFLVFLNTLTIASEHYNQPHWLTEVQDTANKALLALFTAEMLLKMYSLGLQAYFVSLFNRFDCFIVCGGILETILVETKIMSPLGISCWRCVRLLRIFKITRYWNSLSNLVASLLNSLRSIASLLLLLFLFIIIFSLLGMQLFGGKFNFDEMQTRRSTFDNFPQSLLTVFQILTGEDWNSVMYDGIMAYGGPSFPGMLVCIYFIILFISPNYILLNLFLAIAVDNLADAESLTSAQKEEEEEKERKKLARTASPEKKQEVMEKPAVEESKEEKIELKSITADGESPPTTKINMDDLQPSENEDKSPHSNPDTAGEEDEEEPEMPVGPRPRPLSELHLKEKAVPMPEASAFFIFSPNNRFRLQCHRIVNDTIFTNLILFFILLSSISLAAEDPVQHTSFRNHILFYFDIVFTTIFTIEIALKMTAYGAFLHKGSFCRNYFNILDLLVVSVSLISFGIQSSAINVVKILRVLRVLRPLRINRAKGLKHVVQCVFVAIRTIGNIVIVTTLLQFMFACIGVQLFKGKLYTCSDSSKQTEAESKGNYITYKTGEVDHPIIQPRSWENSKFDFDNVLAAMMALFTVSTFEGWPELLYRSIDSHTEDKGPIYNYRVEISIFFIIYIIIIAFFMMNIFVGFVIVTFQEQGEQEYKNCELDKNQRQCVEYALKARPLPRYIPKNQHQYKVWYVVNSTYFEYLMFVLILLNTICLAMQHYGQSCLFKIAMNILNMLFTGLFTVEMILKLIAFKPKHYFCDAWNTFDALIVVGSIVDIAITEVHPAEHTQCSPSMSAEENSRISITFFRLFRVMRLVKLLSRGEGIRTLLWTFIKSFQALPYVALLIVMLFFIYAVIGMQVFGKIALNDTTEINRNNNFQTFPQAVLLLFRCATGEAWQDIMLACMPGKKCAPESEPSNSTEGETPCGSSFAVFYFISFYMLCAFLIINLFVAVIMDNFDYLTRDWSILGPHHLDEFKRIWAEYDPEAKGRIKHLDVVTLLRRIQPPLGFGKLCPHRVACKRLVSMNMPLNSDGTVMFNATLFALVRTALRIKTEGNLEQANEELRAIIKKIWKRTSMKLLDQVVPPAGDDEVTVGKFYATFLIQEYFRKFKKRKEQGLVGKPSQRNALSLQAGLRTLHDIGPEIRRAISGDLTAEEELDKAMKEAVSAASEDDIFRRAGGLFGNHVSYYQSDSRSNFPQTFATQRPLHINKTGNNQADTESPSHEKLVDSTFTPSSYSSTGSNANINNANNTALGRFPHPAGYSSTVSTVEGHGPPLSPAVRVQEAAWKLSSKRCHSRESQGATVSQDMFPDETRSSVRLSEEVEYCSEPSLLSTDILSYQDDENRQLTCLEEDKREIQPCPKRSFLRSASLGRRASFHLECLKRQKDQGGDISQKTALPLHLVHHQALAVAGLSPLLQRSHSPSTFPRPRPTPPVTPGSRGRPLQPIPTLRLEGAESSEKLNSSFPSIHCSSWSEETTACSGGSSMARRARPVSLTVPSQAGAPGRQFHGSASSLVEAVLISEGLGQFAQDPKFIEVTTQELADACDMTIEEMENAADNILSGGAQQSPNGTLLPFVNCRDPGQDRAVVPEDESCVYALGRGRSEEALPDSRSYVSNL
Ca Channel L-Type, Dihydropyridine, sequence (P22002 whole entry): as above
T19 sequence (P41145 whole entry): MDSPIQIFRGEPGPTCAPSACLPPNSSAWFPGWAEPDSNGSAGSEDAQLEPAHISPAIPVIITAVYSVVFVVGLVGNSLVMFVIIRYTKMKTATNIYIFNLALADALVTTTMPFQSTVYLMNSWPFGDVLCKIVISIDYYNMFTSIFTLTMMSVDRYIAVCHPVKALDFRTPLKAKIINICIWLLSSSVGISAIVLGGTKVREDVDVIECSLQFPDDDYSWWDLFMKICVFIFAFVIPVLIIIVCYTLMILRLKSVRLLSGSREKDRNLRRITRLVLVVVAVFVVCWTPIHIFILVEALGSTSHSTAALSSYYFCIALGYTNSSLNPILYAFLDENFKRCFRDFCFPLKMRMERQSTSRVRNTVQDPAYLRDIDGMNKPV

O=S(=O)(c1cccc(F)c1)n1ccc2c(N3CCNCC3)nc3ccccc3c21 [FPPQ, 1-[(3-Fluorophenyl)sulfonyl]-4-(piperazin-1-yl)-1H-pyrrolo[3,2-c]quinoline dihydrochloride]
inhibition at 10 µM (Adrenergic α1B): 29% | Ki (h5-HT1A): 437 nM | inhibition at 10 µM (Chemokine CCR1): -6% | IC50 (Histamine H1): 460 nM | Ki (Histamine H1): 220 nM | inhibition at 0.01 µM (Histamine H1; read-out: %inh, 10 nM): 4% | inhibition at 0.1 µM (Histamine H1; read-out: %inh, 0.1 μM): 19% | inhibition at 1 µM (Histamine H1; read-out: %inh, 1 μM): 67% | inhibition at 10 µM (Histamine H1; read-out: %inh, 10 μM): 97% | inhibition at 10 µM (Histamine H1; [4]): 98% | inhibition at 10 µM (COX-1): -6% | IC50 (Serotonin 5-HT2C): 1580 nM | Ki (Serotonin 5-HT2C): 830 nM | inhibition at 0.01 µM (Serotonin 5-HT2C; read-out: %inh, 10 nM, additional batch): -5% | inhibition at 0.1 µM (Serotonin 5-HT2C; read-out: %inh, 0.1 μM): -6% | inhibition at 1 µM (Serotonin 5-HT2C; read-out: %inh, 1 μM): 32% | inhibition at 10 µM (Serotonin 5-HT2C; read-out: %inh, 10 μM): 94% | inhibition at 10 µM (Serotonin 5-HT2C; [4]): 93% | IC50 (Tachykinin NK1): 13700 nM | Ki (Tachykinin NK1): 9920 nM | inhibition at 0.1 µM (Tachykinin NK1; 0.1 μM): 0% | inhibition at 1 µM (Tachykinin NK1; 1 μM): 10% | inhibition at 10 µM (Tachykinin NK1): 40% | inhibition at 10 µM (Tachykinin NK1; additional batch): 58% | inhibition at 100 µM (Tachykinin NK1; 100 μM): 92% | inhibition at 10 µM (Cannabinoid CB2): -21% | inhibition at 10 µM (Muscarinic M2): 5% | IC50 (Adrenergic β1): 300 nM | Ki (Adrenergic β1): 170 nM | inhibition at 0.01 µM (Adrenergic β1; read-out: %inh, 10 nM): -3% | inhibition at 0.1 µM (Adrenergic β1; read-out: %inh, 0.1 μM): 27% | inhibition at 1 µM (Adrenergic β1; read-out: %inh, 1 μM): 75% | inhibition at 10 µM (Adrenergic β1; [4]): 102% | inhibition at 10 µM [1]: 14% | IC50 (Serotonin 5-HT2B): 260 nM | Ki (Serotonin 5-HT2B): 170 nM | inhibition at 0.01 µM (Serotonin 5-HT2B; read-out: %inh, 10 nM): 13% | inhibition at 0.1 µM (Serotonin 5-HT2B; read-out: %inh, 0.1 μM): 31% | inhibition at 1 µM (Serotonin 5-HT2B; read-out: %inh, 1 μM): 71% | inhibition at 10 µM (Serotonin 5-HT2B; read-out: %inh, 10 μM): 96% | inhibition at 10 µM (Serotonin 5-HT2B; [4]): 97% | inhibition at 10 µM (Adenosine A1): 29% | inhibition at 0.01 µM ([2]; 10 nM): -2% | inhibition at 0.1 µM ([2]; 0.1 μM): 9% | inhibition at 1 µM ([2]; 1 μM): 48% | inhibition at 10 µM [2]: 78% | inhibition at 10 µM ([2]; additional batch): 85% | inhibition at 10 µM (Endothelin ETA): 3% | inhibition at 10 µM (Histamine H2): 45% | inhibition at 10 µM (Adenosine A2A): 1% | inhibition at 10 µM (Progesterone PR-B): 21% | IC50 (Potassium Channel [hERG]): 1150 nM | inhibition at 0.01 µM ([3]; 10 nM): -4% | inhibition at 0.1 µM ([3]; 0.1 μM): 3% | inhibition at 1 µM ([3]; 1 μM): 60% | inhibition at 10 µM [3]: 89% | inhibition at 10 µM ([3]; additional batch): 78% | inhibition at 10 µM (ACE): -9% | IC50 (Serotonin 5-HT5A): 5580 nM | inhibition at 0.1 µM (Serotonin 5-HT5A; read-out: %inh, 0.1 μM): 1% | inhibition at 10 µM (Serotonin 5-HT5A; read-out: %inh, 10 μM): 64% | inhibition at 10 µM (Serotonin 5-HT5A; [4]): 61% | inhibition at 100 µM (Serotonin 5-HT5A; read-out: %inh, 100 μM): 98% | IC50 (Opiate κ (OP2, KOP)): 8180 nM | Ki (Opiate κ (OP2, KOP)): 3270 nM | inhibition at 0.1 µM (Opiate κ (OP2, KOP); read-out: %inh, 0.1 μM): 5% | inhibition at 1 µM (Opiate κ (OP2, KOP); read-out: %inh, 1 μM): 8% | inhibition at 10 µM (Opiate κ (OP2, KOP); read-out: %inh, 10 μM): 55% | inhibition at 10 µM (Opiate κ (OP2, KOP); [4]): 64% | inhibition at 100 µM (Opiate κ (OP2, KOP); read-out: %inh, 100 μM): 99% | inhibition at 10 µM (GABA Transporter): 3% | IC50 (CYP1A2): 12000 nM
